Data published in the NIST ThermoML archive (doi:10.1021/je050367p).

Experiments:
[1] = xn = mol fraction of the nth substance listed; settings: 100.8 kPa, Liquid; for viscosity: Capillary tube (Ostwald / Ubbelohde) method
[2] = refractive index (Na D-line) (dimensionless); xn = mol fraction of the nth substance listed; settings: 100.8 kPa, Liquid, Standard Abbe refractometry

CC(C)CC(C)(C)C [2,2,4-trimethylpentane] + CCO
Settings	mass density, 288.15 K [kg/m3]	mass density, 298.15 K [kg/m3]	mass density, 308.15 K [kg/m3]	refractive index, 288.15 K	refractive index, 298.15 K	refractive index, 308.15 K	viscosity, 288.15 K [mPa·s]	viscosity, 298.15 K [mPa·s]	viscosity, 308.15 K [mPa·s]
[1], x2 = 0	695.95	687.74	679.41	–	–	–	0.537	0.48	0.432
[1], x2 = 0.0502	697.2	688.84	680.36	–	–	–	0.532	0.473	0.424
[1], x2 = 0.1	698.76	690.33	681.76	–	–	–	0.535	0.476	0.426
[1], x2 = 0.15	700.55	692.11	683.52	–	–	–	0.542	0.48	0.429
[1], x2 = 0.2	702.53	694.07	685.43	–	–	–	0.551	0.487	0.434
[1], x2 = 0.25	704.71	696.21	687.56	–	–	–	0.564	0.497	0.441
[1], x2 = 0.3	707.1	698.57	689.88	–	–	–	0.58	0.51	0.451
[1], x2 = 0.35	709.71	701.17	692.45	–	–	–	0.601	0.526	0.462
[1], x2 = 0.4	712.6	704.03	695.3	–	–	–	0.625	0.543	0.476
[1], x2 = 0.45	715.8	707.2	698.44	–	–	–	0.652	0.565	0.492
[1], x2 = 0.5	719.31	710.68	701.91	–	–	–	0.682	0.588	0.51
[1], x2 = 0.55	723.22	714.59	705.8	–	–	–	0.718	0.615	0.531
[1], x2 = 0.6	727.55	718.9	710.11	–	–	–	0.755	0.645	0.554
[1], x2 = 0.65	732.37	723.73	714.93	–	–	–	0.797	0.677	0.58
[1], x2 = 0.7	737.81	729.14	720.34	–	–	–	0.843	0.715	0.609
[1], x2 = 0.75	743.99	735.34	726.54	–	–	–	0.894	0.755	0.642
[1], x2 = 0.8	751.11	742.37	733.58	–	–	–	0.952	0.801	0.678
[1], x2 = 0.85	759.27	750.54	741.75	–	–	–	1.018	0.854	0.72
[1], x2 = 0.9	768.81	760.17	751.44	–	–	–	1.095	0.915	0.769
[1], x2 = 0.95	780.26	771.59	762.84	–	–	–	1.19	0.991	0.828
[2], x2 = 0	–	–	–	1.39404	1.389	1.38395	–	–	–
[2], x2 = 0.0502	–	–	–	1.39319	1.3881	1.38297	–	–	–
[2], x2 = 0.1	–	–	–	1.39241	1.3873	1.38217	–	–	–
[2], x2 = 0.15	–	–	–	1.39162	1.38651	1.38138	–	–	–
[2], x2 = 0.2	–	–	–	1.39081	1.38569	1.38056	–	–	–
[2], x2 = 0.25	–	–	–	1.38996	1.38485	1.37972	–	–	–
[2], x2 = 0.3	–	–	–	1.38907	1.38397	1.37885	–	–	–
[2], x2 = 0.35	–	–	–	1.38811	1.38304	1.37794	–	–	–
[2], x2 = 0.4	–	–	–	1.38709	1.38204	1.37696	–	–	–
[2], x2 = 0.45	–	–	–	1.38597	1.38099	1.37593	–	–	–
[2], x2 = 0.5	–	–	–	1.38479	1.37984	1.3748	–	–	–
[2], x2 = 0.55	–	–	–	1.3835	1.37858	1.37358	–	–	–
[2], x2 = 0.6	–	–	–	1.38209	1.37722	1.37227	–	–	–
[2], x2 = 0.65	–	–	–	1.38055	1.37573	1.37083	–	–	–
[2], x2 = 0.7	–	–	–	1.37884	1.37408	1.36922	–	–	–
[2], x2 = 0.75	–	–	–	1.37694	1.37225	1.36745	–	–	–
[2], x2 = 0.8	–	–	–	1.37484	1.3702	1.3655	–	–	–
[2], x2 = 0.85	–	–	–	1.37249	1.36792	1.3633	–	–	–
[2], x2 = 0.9	–	–	–	1.36984	1.36536	1.36085	–	–	–
[2], x2 = 0.95	–	–	–	1.36684	1.36248	1.35812	–	–	–
